Measured values reported in patent US10800789B2, “Antiviral compounds” (Gilead Pharmasset LLC, priority 2012, dated 2020).
Like-named read-outs stand apart in the source and are kept apart here.

Tests used:
[1] = tested on: NS5A chimeric genotype 1b Con1 replicon with genotype 4a ED43 strain NS5A gene; experiment: Replicon assay, genotype 4a NS5A chimera; type: cell-based, HCV; conditions: Hepatitis C virus
[2] = tested on: NS5A chimeric genotype 2a JFH-1 replicon with genotype 2a J6 strain NS5A gene (M31 present); experiment: Replicon assay, genotype 2a J6 NS5A chimera; type: cell-based, HCV; conditions: Hepatitis C virus
Method in brief: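 First, 3-fold serial dilutions of compound went onto replicon cells, DMSO serving as no-inhibition control and ITMN-191 at >100×EC50 as positive control. Next came 72 h incubation, lysis and Renilla luciferase measurement. Finally, EC50 was calculated by non-linear regression; replicons covered genotypes 1a H77, 1b Con1, 2a JFH-1 (L31) and J6-NS5A chimera (M31).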

[3] = tested on: NS5A chimeric genotype 2a JFH-1 replicon with genotype 2b MD2b-1 strain NS5A gene (M31 present); experiment: Replicon assay, genotype 2b NS5A chimera; type: cell-based, HCV; conditions: Hepatitis C virus
Method in brief: (§1)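 Cells carrying the stable or transiently transfected (Huh-Lunet) dicistronic RLuc replicons received 3-fold serial compound dilutions from 10 mM DMSO stocks. After 72 h, cells were lysed and Renilla luciferase read. DMSO served as the no-inhibition control and ITMN-191 above 100×EC50 as the positive control; EC50 by non-linear regression.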

[4] = tested on: stable HCV 1a RLuc replicon cells (dicistronic genotype 1a H77 replicon); experiment: Renilla luciferase HCV replicon reporter assay, genotype 1a; type: cell-based; conditions: Hepatitis C virus, 72 h, stable 1a H77 RLuc replicon cells
Method in brief: as §1

[5] = tested on: NS5A chimeric genotype 1b Con1 replicon with genotype 3a S52 strain NS5A gene; experiment: Replicon assay, genotype 3a NS5A chimera; type: cell-based, HCV; conditions: Hepatitis C virus
[6] = tested on: stable HCV 1b RLuc replicon cells (dicistronic genotype 1b Con1 replicon); experiment: Renilla luciferase HCV replicon reporter assay, genotype 1b; type: cell-based; conditions: Hepatitis C virus, 72 h, stable 1b Con1 RLuc replicon cells, 72 hours; read-out: 1b
Method in brief: as §1

[7] = tested on: stable HCV 2a JFH-1 Rluc replicon cells (L31 present in NS5A); experiment: Renilla luciferase HCV replicon reporter assay, genotype 2a JFH-1; type: cell-based; conditions: Hepatitis C virus
Method in brief: as §1

[8] = read-out: 4a (s) (nM), genotype 4a NS5A chimeric replicon, stable replicon cells (s)
[9] = read-out: 4a (s), (s), activity range
[10] = read-out: 2a J6 (t) (nM), genotype 2a J6 NS5A chimeric replicon (M31), transiently transfected (t) into Huh-Lunet cells
[11] = read-out: 2a J6 (t), transiently transfected (t) into Huh-Lunet cells, activity range
[12] = 2BS, read-out: 2b (s), stably replicating replicon cells (s), activity range
[13] = read-out: 2b (s) (nM), genotype 2b MD2b-1 NS5A chimeric replicon (M31), stably replicating replicon cells (s)
[14] = read-out: 3a (s) (nM), genotype 3a NS5A chimeric replicon, stable replicon cells (s)
[15] = read-out: 3a (s), (s), activity range
[16] = read-out: 2a JFH (nM), genotype 2a JFH-1 replicon (L31 in NS5A), stable cells
[17] = read-out: 2a JFH, stable 2a JFH-1 Rluc replicon cells, L31 in NS5A, activity range

| Compound | EC50 [1, 8] [nM] | EC50 [1, 9] [nM] | EC50 [2, 10] [nM] | EC50 [2, 11] [nM] | EC50 [3, 12] [nM] | EC50 [3, 13] [nM] | EC50 [4] [pM] | EC50 ([4]; activity range) [pM] | EC50 [5, 14] [nM] | EC50 [5, 15] [nM] | EC50 [6] [pM] | EC50 [7, 16] [nM] | EC50 [7, 17] [nM] | EC50 ([5]; read-out: 3a (t) (nM), genotype 3a NS5A chimeric replicon, transiently transfected (t)) [nM] | EC50 ([5]; read-out: 3a (t), transiently transfected (t) into Huh-Lunet cells, activity range) [nM] | EC50 ([3]; read-out: 2b (t) (nM), genotype 2b MD2b-1 NS5A chimeric replicon (M31), transiently transfected (t)) [nM] | EC50 ([3]; read-out: 2b (t), transiently transfected (t) into Huh-Lunet cells, activity range) [nM] |
| --- | --- | --- | --- | --- | --- | --- | --- | --- | --- | --- | --- | --- | --- | --- | --- | --- | --- |
| COC(=O)N[C@H](C(=O)N1[C@@H](C)CC[C@H]1c1ncc(-c2ccc3c(c2)COc2cc4c(ccc5nc([C@@H]6CC[C@H](C)N6C(=O)[C@@H](NC(=O)OC)C6CC6)[nH]c54)cc2-3)[nH]1)C(C)C [HD] | 0.016 | < 0.1 | 1.39 | 1 to 44 | 1 to 44 | 1.9 | 15 | < 100 | 0.102 | 0.1 to 0.999 | 17 | 0.017 | < 0.1 |  |  |  |  |
| COC(=O)N[C@H](C(=O)N1[C@@H](C)CC[C@H]1c1ncc(-c2ccc3c(c2)COc2cc4c(ccc5nc([C@@H]6CC[C@H](C(C)C)N6C(=O)[C@@H](NC(=O)OC)C6CCOCC6)[nH]c54)cc2-3)[nH]1)C(C)C [ID] | 0.026 | < 0.1 | 0.953 | 0.1 to 0.999 | 1 to 44 | 1.81 | 35 | < 100 | 0.801 | 0.1 to 0.999 | 38 | 0.051 | < 0.1 |  |  |  |  |
| COC(=O)N[C@H](C(=O)N1[C@@H](C)CC[C@H]1c1ncc(-c2ccc3c(c2)COc2cc4c(ccc5nc([C@@H]6CC[C@H](C)N6C(=O)[C@@H](NC(=O)OC)[C@H](C)O)[nH]c54)cc2-3)[nH]1)C(C)C [HW] | 0.021 | < 0.1 | 1.1 | 1 to 44 | 1 to 44 | 1.79 | 56 | < 100 | 0.085 | < 0.1 | 66 | 0.047 | < 0.1 |  |  |  |  |
| COC[C@H]1C[C@@H](c2ncc(-c3ccc4c(c3)COc3cc5c(ccc6nc([C@@H]7C[C@H](COC)CN7C(=O)[C@@H](NC(=O)OC)[C@@H](C)OC)[nH]c65)cc3-4)[nH]2)N(C(=O)[C@@H](NC(=O)OC)[C@@H](C)OC)C1 [EX, Methyl {(2S,3R)-3-methoxy-1-[(2S,4S)-2-(9-{2-[(2S,4S)-1-[N-(methoxycarbonyl)-O-methyl-L-threonyl]-4-(methoxymethyl)pyrrolidin-2-yl]-1H-imidazol-5-yl}-1,11-dihydroisochromeno[4′,3′:6,7]naphtho[1,2-d]imidazol-2-yl)-4-(methoxymethyl)pyrrolidin-1-yl]-1-oxobutan-2-yl}carbamate] | 0.072 | < 0.1 | 0.052 | < 0.1 | 0.1 to 0.999 | 0.393 | 79 | < 100 | 1.69 | 1 to 44 | 197 | 0.027 | < 0.1 |  |  |  |  |
| COC(=O)N[C@H](C(=O)N1[C@@H](C)CC[C@H]1c1nc2ccc3cc4c(cc3c2[nH]1)OCc1cc(-c2cnc([C@@H]3C[C@H](C)CN3C(=O)[C@@H](NC(=O)OC)C3CCOCC3)[nH]2)ccc1-4)C(C)C [EJ, methyl[(2S)-1-{(2S,5S)-2-[9-(2-{(2S,4S)-1-[(2S)-2-[(methoxycarbonyl)amino]-2-(tetrahydro-2H-pyran-4-yl)acetyl]-4-methylpyrrolidin-2-yl}-1H-imidazol-5-yl)-1,11-dihydroisochromeno[4′,3′:6,7]naphtho[1,2-d]imidazol-2-yl]-5-methylpyrrolidin-1-yl}-3-methyl-1-oxobutan-2-yl]carbamate] | 0.017 | < 0.1 | 0.041 | < 0.1 | 0.1 to 0.999 | 0.112 | 16 | < 100 | 0.081 | < 0.1 | 39 | 0.028 | < 0.1 | 0.046 | < 0.1 |  |  |
| CC[C@H]1CC[C@@H](c2nc3ccc4cc5c(cc4c3[nH]2)OCc2cc(-c3cnc([C@@H]4CC[C@H](C)N4C(=O)[C@@H](NC(=O)OC)C(C)C)[nH]3)ccc2-5)N1C(=O)[C@H](NC(=O)OC)c1ccccc1 [IH] | 0.016 | < 0.1 | 0.514 | 0.1 to 0.999 | 0.1 to 0.999 | 0.194 | 20 | < 100 | 0.052 | < 0.1 | 21 | 0.024 | < 0.1 |  |  |  |  |
| COC(=O)N[C@H](C(=O)N1[C@@H](C)CC[C@H]1c1nc2ccc3cc4c(cc3c2[nH]1)OCc1cc(-c2cnc([C@@H]3C[C@@H]5CCC[C@@H]5N3C(=O)[C@@H](NC(=O)OC)C3CCOCC3)[nH]2)ccc1-4)C(C)C [IB] | 0.026 | < 0.1 | 0.05 | < 0.1 | 0.1 to 0.999 | 0.129 | 21 | < 100 | 0.077 | < 0.1 | 32 | 0.027 | < 0.1 |  |  |  |  |
| CC[C@H]1C[C@@H](c2nc3ccc4cc5c(cc4c3[nH]2)OCc2cc(-c3cnc([C@@H]4CC[C@H](C)N4C(=O)[C@@H](NC(=O)OC)C(C)C)[nH]3)ccc2-5)N(C(=O)[C@@H](NC(=O)OC)C(C)C)C1 [GT] | 0.031 | < 0.1 | 0.257 | 0.1 to 0.999 | 1 to 44 | 1.73 | 17 | < 100 | 0.187 | 0.1 to 0.999 | 21 | 0.028 | < 0.1 |  |  |  |  |
| COC[C@H]1C[C@@H](c2ncc(-c3ccc4c(c3)COc3cc5c(ccc6nc([C@@H]7C[C@H](C)CN7C(=O)[C@@H](NC(=O)OC)[C@@H](C)OC)[nH]c65)cc3-4)[nH]2)N(C(=O)[C@@H](NC(=O)OC)[C@@H](C)OC)C1 [FW, Methyl {(2S,3R)-3-methoxy-1-[(2S,4S)-2-(9-{2-[(2S,4S)-1-[N-(methoxycarbonyl)-O-methyl-L-threonyl]-4-(methoxymethyl)pyrrolidin-2-yl]-1H-imidazol-5-yl}-1,11-dihydroisochromeno[4′,3′:6,7]naphtho[1,2-d]imidazol-2-yl)-4-methylpyrrolidin-1-yl]-1-oxobutan-2-yl}carbamate] | 0.08 | < 0.1 | 0.104 | 0.1 to 0.999 | 0.1 to 0.999 | 0.773 | 121 | 100 to 999 | 1.17 | 1 to 44 | 187 | 0.054 | < 0.1 |  |  | 0.399 | 0.1 to 0.999 |
| COC(=O)N[C@H](C(=O)N1[C@@H](C)CC[C@H]1c1nc2ccc3cc4c(cc3c2[nH]1)OCc1cc(-c2cnc([C@@H]3[C@@H]5C[C@@H]5CN3C(=O)[C@@H](NC(=O)OC)C3CCOCC3)[nH]2)ccc1-4)C(C)C [HO] | 0.04 | < 0.1 | 0.207 | 0.1 to 0.999 | 0.1 to 0.999 | 0.639 | 59 | < 100 | 0.136 | 0.1 to 0.999 | 74 | 0.022 | < 0.1 |  |  |  |  |
| CCC[C@H](NC(=O)OC)C(=O)N1[C@@H](C)CC[C@H]1c1ncc(-c2ccc3c(c2)COc2cc4c(ccc5nc([C@@H]6CC[C@H](C)N6C(=O)[C@H](CCC)NC(=O)OC)[nH]c54)cc2-3)[nH]1 [HA] | 0.028 | < 0.1 | 4.12 | 1 to 44 | 1 to 44 | 5.42 | 18 | < 100 | 0.132 | 0.1 to 0.999 | 19 | 0.033 | < 0.1 |  |  |  |  |
| COC(=O)N[C@H](C(=O)N1C(c2ncc(-c3ccc4c(c3)COc3cc5c(ccc6nc(C7C[C@H](C)CN7C(=O)[C@@H](NC(=O)OC)C(C)(C)C)[nH]c65)cc3-4)[nH]2)CC[C@@H]1C)C(C)C (stereo partly shown) [HN] | 0.018 | < 0.1 | 1.1 | 1 to 44 | 1 to 44 | 2.86 | 10 | < 100 | 0.282 | 0.1 to 0.999 | 12 | 0.018 | < 0.1 |  |  |  |  |
